Assays:
bacteria = assay: in vitro assay for antibacterial activity, bacteria not specified; assay type: cell-based; conditions: L. monocytogenes, antibiotic resistant S. aureus, K. pneumoniae, E. coli (FIGS. 2A-2D); 7 µM, 1 h at 37 °C
Experimental: (§1) Listeria monocytogenes strain EGD, Klebsiella pneumoniae (43816), and Escherichia coli O54 were purchased from the American Type Culture Collection (Rockville, MD). Antibiotic resistant S. aureus, K. pneumoniae and E. coli were cultured overnight in nutrient broth (Oxoid, Basingstoke, UK) at 37°C, diluted in tryptase soya broth (TSB, Oxoid) and cultured for an additional 2 h in a shaking waterbath at 37 °C. L. monocytogenes was cultured overnight in brain heart infusion broth (BHI, Oxoid) at 37°C, diluted and cultured for an additional 2 h in a shaking waterbath at 37°C.
In short, bacteria were washed with phosphate-buffered saline (PBS) (pH 7.4) and diluted to a concentration of approximately 2x10^6 CFU/ml of phosphate-buffered saline (pH 6.0) supplemented with 0.1 % (v/v) Tween-20 (hereafter designated as PBS-Tw). […] […] As negative controls, bovine serum albumin (BSA; Sigma) or no peptide were included.

L. monocytogenes = assay: in vitro assay for antibacterial activity (number of viable bacteria); assay type: cell-based, Listeria monocytogenes strain EGD; conditions: for killing of L. monocytogenes (result in words): dose-effect studies, proteins in PBS-Tw, synthetic peptides in NaPB-TSB
Experimental: as §1
(§2) In short, bacteria were washed with phosphate-buffered saline (PBS) (pH 7.4) and diluted to a concentration of approximately 2x10^6 CFU/ml of phosphate-buffered saline (pH 6.0) supplemented with 0.1 % (v/v) Tween-20 (hereafter designated as PBS-Tw). […] At various time intervals (range 0-4 h) after incubation at 37 °C the number of viable bacteria was determined microbiologically. As negative controls, bovine serum albumin (BSA; Sigma) or no peptide were included.

[1] = tested on: antibiotic resistant S. aureus; assay: as above; assay type: cell-based, Staphylococcus aureus strain 2141; conditions: for killing of antibiotic resistant S. aureus (result in words): dose-effect studies, proteins in PBS-Tw, synthetic peptides in NaPB-TSB
Experimental: as §1, §2

K. pneumoniae = assay: as above; assay type: cell-based, Klebsiella pneumoniae (43816); conditions: proteins in PBS-Tw, synthetic peptides in NaPB-TSB
Experimental: as §1, §2

E. coli = assay: as above; assay type: cell-based, Escherichia coli O54; conditions: synthetic peptides in NaPB-TSB, 1 h at 37 °C
Experimental: as §1
[…] […] At various time intervals (range 0-4 h) after incubation at 37 °C the number of viable bacteria was determined microbiologically. As negative controls, bovine serum albumin (BSA; Sigma) or no peptide were included.

[2] = tested on: antibiotic resistant S. aureus; assay: experimental thigh muscle infection; assay type: in vivo, mice; conditions: for amount with which maximum effects on the number of viable bacteria were seen: mice infected with antibiotic resistant S. aureus, i.v. injection 24 h after infection, within 24 h after injection; for antibacterial activity in infected mice (result in words): mice with thigh muscle infection with antibiotic resistant S. aureus
Experimental: All animal studies were done in compliance with the LUMC Ethical Committee and Dutch laws related to the conduct of animal experiments. […] In short, specific pathogen-free, male, Swiss mice weighing 20-25 g (Broekman Institute, Someren, The Netherlands) were anaesthetized with a single intraperitoneal injection of 0.1 ml of saline containing 1 mg fluanisone and 0.03 mg fentanyl citrate (Hypnorm, Janssen Pharmaceutics, Tilburg, The Netherlands). Preceding scintigraphy, a subcutaneous injection of 0.1 ml, containing 0.2 mg diazepam (Valium, Hoffmann-La Roche, Mijdrecht. The Netherlands) was administered. Immediately thereafter, 1x10^7 CFU of antibiotic resistant S. aureus or K. pneumoniae in 0.1 ml of saline were injected into the right thigh muscle. […] As a control, mice were injected with 0.2 ml of saline containing BSA or saline without any peptide. […] Next, the infected thigh muscles were removed and, after weighing, homogenized in 4 ml of PBS. Appropriate dilutions of the homogenates were applied onto diagnostic sensitivity test plates (Oxoid), and the number of colonies counted after an overnight culture at 37 °C. Results are expressed as the number of CFUs per gram of infected tissue. All negative cultures were assigned the values of 100 CFU/ml of homogenate, which is the lower limit of detection.

[3] = pharmacology of 99mTc-labelled protein/peptides by scintigraphy (clearance, organ uptake, amount at the site of infection); assay type: in vivo, mice; conditions: for Uptake by bladder / Uptake by kidneys / Uptake by liver: 1 nmole 99mTc-labelled, mice infected with antibiotic resistant S. aureus; for mean t1/2 (removal from the circulation): mouse, in vivo, iv
From the text: Labeling yields amounted to 88-95%.

Substance	bactericidal activity against the various bacteria (bacteria)	killing of L. monocytogenes (result in words) (L. monocytogenes)	killing of antibiotic resistant S. aureus (result in words) [1]	killing of K. pneumoniae (result in words) (K. pneumoniae)	killing of E. coli by synthetic peptides (result in words) (E. coli)	antibacterial activity in infected mice (result in words) [2]	mean t1/2 (removal from the circulation) [3]	other results
hLF(5-11): synthetic fragment of hLF(1-11): residues 5-11 of hLF (SVQWCAV; UniProt P02788 24-30, looked up, fragment)	ineffective							
GRRRRSVQWCA [hLF(1-11), Mr 1,374]	displayed bactericidal activity	considerably (p<0.05) more efficient than hLF(3-11)	considerably (p<0.05) more efficient than hLF(3-11)	killed	killed	much more effective than hLF(4-11)	~9 min	bactericidal efficiency relative to hLF(21-31) (L. monocytogenes; L. monocytogenes, FIGS. 3A-3C): at least ten times more (p<0.05) efficient than hLF(21-31); bactericidal efficiency relative to hLF(21-31) ([1]; antibiotic resistant S. aureus, FIGS. 3A-3C): at least ten times more (p<0.05) efficient than hLF(21-31); amount with which maximum effects on the number of viable bacteria were seen [2]: 0.1 nmol; Uptake by bladder ([3]; interval 1 min): 10±1.5 % ID; Uptake by kidneys ([3]; interval 1 min): 18±3.8 % ID; Uptake by liver ([3]; interval 1 min): 20±1.6 % ID; Uptake by bladder ([3]; interval 15 min): 11±7.5 % ID; Uptake by kidneys ([3]; interval 15 min): 21±9.3 % ID; Uptake by liver ([3]; interval 15 min): 20±4.9 % ID; Uptake by bladder ([3]; interval 30 min): 21±5.7 % ID; Uptake by kidneys ([3]; interval 30 min): 17±5.7 % ID; Uptake by liver ([3]; interval 30 min): 20±1.6 % ID; Uptake by bladder ([3]; interval 60 min): 22±5.6 % ID; Uptake by kidneys ([3]; interval 60 min): 14±0.4 % ID; Uptake by liver ([3]; interval 60 min): 27±0.6 % ID; amount of radiolabeled peptide at the site of infection ([3]; within the first min after injection of 1 nmole, antibiotic resistant S. aureus-infected mice): 1-1.5 % of injected dose (ID)
hLF(4-11): synthetic fragment of hLF(1-11): residues 4-11 of hLF (RSVQWCAV; UniProt P02788 23-30, looked up, fragment)	displayed bactericidal activity					some antibacterial activity	approximately 1 min	
hLF(6-11): synthetic fragment of hLF(1-11): residues 6-11 of hLF (VQWCAV; UniProt P02788 25-30, looked up, fragment)	ineffective							
hLF(3-11): synthetic fragment of hLF(1-11): residues 3-11 of hLF (RRSVQWCAV; UniProt P02788 22-30, looked up, fragment)	displayed bactericidal activity	significantly (p<0.05) more efficient than hLF(4-11)	significantly (p<0.05) more efficient than hLF(4-11)	killed	killed			
hLF(2-11): residues 2 to 11 inclusively from the N-terminal region of hLF (RRRSVQWCAV; UniProt P02788 21-30, looked up, fragment)	displayed bactericidal activity	considerably (p<0.05) more efficient than hLF(3-11)	considerably (p<0.05) more efficient than hLF(3-11)	killed	killed			
FQWQRNMRKVR [hLF(21-31), Mr 1,548; includes the second cationic domain, reference compound]						less effective than hLF(1-11)	~2 min	amount with which maximum effects on the number of viable bacteria were seen [2]: 10 nmol

From patent publication EP1228097B1, “ANTIMICROBIAL ACTIVITY OF THE FIRST CATIONIC CLUSTER OF HUMAN LACTOFERRIN” (priority 1999, dated 2005)
